From US12590965B2, “Palmitoyl protein biomarkers in purified extracellular vesicles for early identification of clinically significant prostate cancer” (priority 2012, dated 2026)
Entries after “also recorded” stand apart in the source; their conditions may differ.

Experiments:
[1] = tested on: palmitoylation in PC3 cells; experiment: Immunoblot of protein abundance in PC3 L- and S-EVs after inhibition of palmitoylation; type: cell-based
Procedure: (§1) The PC3 cell line was obtained from the American Type Culture Collection (ATCC). The DU145DIAPH3-KD cell line, stably transfected with DIAPH3 shRNA, was generated in our laboratories. PC3 and DU145DIAPH3-KD cell lines were cultured in DMEM (Invitrogen). All cells were supplemented with 10% foetal bovine serum (Denville Scientific), 2 mM L-glutamine (Invitrogen) and 1% PenStrep (Invitrogen). DU145DIAPH3-KD cells were additionally selected with 2 μg/mL puromycin as described. All cells were grown at 37° C. and 5% CO2. Cell viability of the EV-producer cells was tested with the 0.4% Trypan Blue (Sigma) exclusion method. All cell lines were routinely tested for mycoplasma contamination by using the MycoAlert PLUS Mycoplasma Detection Kit (Lonza). Finally, in order to collect EVs from cells in which palmitoylation was inhibited, PC3 cells were treated for 24 hours with 2-bromohexadecanoic acid (Sigma), also known as 2-bromopalmitate (0.5, 1, 5, 10, 20, 50 and 100 μM), in serum-starvation.
The isolation of EVs was conducted as previously described with minor modifications (Vagner et al. Large extracellular vesicles carry most of the tumour DNA circulating in prostate cancer patient plasma. J Extracell Vesicles. 2018; 7(1):1505403; Minciacchi et al. Large oncosomes contain distinct protein cargo and represent a separate functional class of tumor-derived extracellular vesicles. Oncotarget. 2015; 6(13):11327-11341; Minciacchi et al. MYC mediates large oncosome-induced fibroblast reprogramming in prostate cancer. Cancer Res. 2017; 77(9):2306-2317). Cells were grown on 18×150 cm^2-cell culture plates (Corning) until 90% confluence, washed in PBS and serum-starved for 24 hours before the collection of conditioned cell media. The conditioned media was cleared by differential centrifugation of floating cells at 300 g, of cell debris at 2,800 g for 10 min, and spun in an ultracentrifuge at 10,000 g for 30 min (4° C., k-factor 2547.2) for the collection of L-EVs. The supernatant was then spun at 100,000 g for 60 min (4° C., k-factor 254.7) for the collection of S-EVs. Both 10,000 g and 100,000 g pellets were then subjected to Optiprep™ (Sigma) density gradient purification. Fresh pelleted EVs were resuspended in 0.2 μm-filtered PBS and deposited at the bottom of an ultracentrifuge tube. […]
Immunoblotting analysis was performed as described (Zhou et al. Low-background Acyl-biotinyl exchange largely eliminates the co-isolation of non-S-Acylated proteins and enables deep S-Acylproteomic analysis. Anal Chem. 2019; 91(15):9858-9866). […] Densitometric quantification of films was performed with the ImageJ software (v1.52a). […]

[2] = tested on: PC3 cells; experiment: Titration of 2-bromopalmitate to a non-toxic concentration in PC3 cells; type: cell-based; conditions: 24 hours, serum-starvation
Procedure: as §1
Finally, we investigated if palmitoylation had any influence on the localization of select proteins in EVs. To do so, we titrated the concentration of 2-bromopalmitate (2-BP), a general inhibitor of palmitoylation, to a non-toxic concentration of 10 μM in PC3 cells (data not shown) in order to avoid any alterations in the EV shedding (FIG. 18(d)) and recovery of EV-protein (FIG. 18(e)). […]

[3] = 10 μM 2-BP for 24 h, PC3 L- and S-EVs

With `CCCCCCCCCCCCCCC(Br)C(=O)O` (centres unmarked) [2-BP, 2-bromohexadecanoic acid] as the molecule, how does the “ABCC4 in EVs” value [1, 3] read?
The value was “decrease; also recorded: reduced”.

What about the “STEAP1 in EVs” value [1, 3] of the same molecule?
The value was “decrease”.

What about the “STEAP2 in EVs” value [1, 3] of the same molecule?
The value was “decrease; also recorded: reduced”.

What about the “Cav-1 levels in EVs” value ([1]; 10 μM 2-BP, PC3 EVs) of the same molecule?
Its value is “did not change; also recorded: did not alter the localization”.

And the non-toxic concentration [2]?
The non-toxic concentration was 10 µM.
